The target in the assay is T1, μ-opioid receptor (Rattus norvegicus, UniProt P33535).
T1 construct: from tissue; host or cells: rat (Sprague Dawley) thalamic membranes
Put plainly: Stimulation of [35S]GTPγS binding to rat thalamic membranes (receptor activation of G proteins). The format is biochemical, Rat (Sprague Dawley). For orientation: GTPγS resists hydrolysis and so accumulates on activated G proteins.

T1 sequence (P33535 whole entry): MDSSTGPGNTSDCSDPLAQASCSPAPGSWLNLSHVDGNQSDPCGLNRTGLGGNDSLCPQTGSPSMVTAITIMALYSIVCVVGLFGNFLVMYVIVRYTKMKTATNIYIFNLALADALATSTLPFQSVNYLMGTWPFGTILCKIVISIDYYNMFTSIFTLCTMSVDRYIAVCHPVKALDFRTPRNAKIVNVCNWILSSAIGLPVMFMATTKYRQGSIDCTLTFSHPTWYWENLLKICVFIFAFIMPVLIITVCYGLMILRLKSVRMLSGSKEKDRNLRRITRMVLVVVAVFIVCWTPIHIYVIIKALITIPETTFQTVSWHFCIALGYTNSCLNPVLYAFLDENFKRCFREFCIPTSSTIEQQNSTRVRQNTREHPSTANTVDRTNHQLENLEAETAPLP

On to `CC[C@H]1C[C@H]2C[C@H]3c4[nH]c5ccc(OC)cc5c4CCN(C2)C13` [Ibogaine], for which the “stimulation of [35S]GTPγS binding” value (even at concentrations above 100 μM) was “weak stimulation”.
`CC[C@H]1C[C@H]2C[C@H]3c4[nH]c5ccc(O)cc5c4CCN(C2)C13` [Noribogaine, 12-hydroxyibogamine]: the “agonist efficacy at the μ-opioid receptor” value (conclusion from [35S]GTPγS binding results) was “full agonist”. The “level of [35S]GTPγS binding stimulated vs maximal number of binding sites occupied after DAMGO stimulation” value (relative to DAMGO stimulation of G proteins) is listed as “in close agreement”.
